Values of other authors as cited in US20090005431A1, “SUBSTITUTED PYRROLIDINES” (AUSPEX PHARMACEUTICALS, INC., priority 2007, published 2009).

Tests used:
Details in all cases: human recombinant muscarinic receptor subtypes; cited from earlier work
[1] = test system: M3 receptor compared to M4
[2] = test system: M3 receptor compared to M1
[3] = test system: M3 receptor compared to M5
[4] = test system: M3 receptor compared to M2

NC(=O)C(c1ccccc1)(c1ccccc1)[C@@H]1CCN(CCc2ccc3c(c2)CCO3)C1 (stereo in doubt) [darifenacin, 2-{1-[2-(2,3-dihydro-benzofuran-5-yl)-ethyl]-pyrrolidin-3-yl}-2,2-diphenyl-acetamide]
greater affinity for M3 compared to M4 [1]: 59 fold | greater affinity for M3 compared to M1 [2]: 9 fold | greater affinity for M3 compared to M5 [3]: 12 fold | greater affinity for M3 compared to M2 [4]: 59 fold
